Assay results reported in ChEMBL document CHEMBL1201862, “PubChem BioAssay data set” (2004).
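Dose response: 5 concentrations. Exposure: 48 h. Format: 96-well plates. Endpoint: linear interpolation; highest concentration if not reached. GI50 marks 50% less growth.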 Calls of active or inactive are those of the source. No stated cut-off is given here; in the data, active = GI50 up to about 1.1 µM and inactive = higher.

Legend:
Assay in all cases: NCI anticancer screen, dose series, 48 h
UACC-257 = system: UACC-257
MOLT-4 = system: MOLT-4
SF-539 = system: SF-539
OVCAR-5 = system: OVCAR-5
HOP-62 = system: HOP-62
SF-268 = system: SF-268
A549 = system: A549
OVCAR-3 = system: OVCAR-3
SK-MEL-2 = system: SK-MEL-2
MDA-MB-231 = system: MDA-MB-231
SW-620 = system: SW-620
ACHN = system: ACHN
DU-145 = system: DU-145
RXF 393 = system: RXF 393
A498 = system: A498
HCT-116 = system: HCT-116
KM12 = system: KM12
RPMI-8226 = system: RPMI-8226
HOP-92 = system: HOP-92
NCI-H23 = system: NCI-H23

Measured: GI50

O=S1(=O)c2ccccc2N2CCCc3cc(Cl)cc1c32
inactive: UACC-257 > 100 µM | MOLT-4 > 100 µM | SF-539 35 µM | OVCAR-5 > 100 µM | HOP-62 41.1 µM | SF-268 34.4 µM | A549 > 100 µM | OVCAR-3 67.5 µM | SK-MEL-2 44.2 µM | MDA-MB-231 37 µM | SW-620 > 100 µM | ACHN > 100 µM | DU-145 > 100 µM | RXF 393 25.2 µM | A498 > 100 µM | HCT-116 > 100 µM | KM12 > 100 µM

COc1ccc(Nc2nc3ccccc3nc2-c2cccs2)cc1OC
inactive: UACC-257 > 10 µM | MOLT-4 > 10 µM | SF-539 > 10 µM | OVCAR-5 > 10 µM | HOP-62 > 10 µM | SF-268 > 10 µM | A549 > 10 µM | OVCAR-3 > 10 µM | RPMI-8226 > 10 µM | HOP-92 > 10 µM | SK-MEL-2 > 10 µM | MDA-MB-231 > 10 µM | SW-620 > 10 µM | ACHN > 10 µM | NCI-H23 > 10 µM | DU-145 > 10 µM | RXF 393 > 10 µM | HCT-116 > 10 µM | KM12 > 10 µM

CCOC(=O)c1c(NS(=O)(=O)c2ccc(Br)cc2)sc2c1CCCC2
inactive: UACC-257 9.23 µM | MOLT-4 4.91 µM | SF-539 7.91 µM | OVCAR-5 6.71 µM | HOP-62 5.9 µM | SF-268 3.72 µM | A549 7.78 µM | OVCAR-3 3.93 µM | RPMI-8226 4.6 µM | SK-MEL-2 5.85 µM | MDA-MB-231 7.29 µM | SW-620 16.5 µM | ACHN 3.93 µM | NCI-H23 6.34 µM | DU-145 8 µM | RXF 393 2.67 µM | A498 9.4 µM | HCT-116 7.52 µM | KM12 6.65 µM

CCOC(=O)C12OC(OCC)(CC1(OCC)OCC)C1(CC1)C2=O (centres undefined)
inactive: UACC-257 > 100 µM | MOLT-4 > 100 µM | SF-539 > 100 µM | OVCAR-5 > 100 µM | HOP-62 > 100 µM | SF-268 > 100 µM | A549 > 100 µM | OVCAR-3 > 100 µM | HOP-92 > 100 µM | SK-MEL-2 > 100 µM | MDA-MB-231 > 100 µM | SW-620 > 100 µM | ACHN > 100 µM | NCI-H23 > 100 µM | DU-145 > 100 µM | A498 > 100 µM | HCT-116 > 100 µM | KM12 > 100 µM

CC(C)(C(=O)NN)c1ccccc1
inactive: UACC-257 > 100 µM | MOLT-4 > 100 µM | SF-539 42.2 µM | OVCAR-5 > 100 µM | HOP-62 > 100 µM | SF-268 45.3 µM | A549 > 100 µM | OVCAR-3 > 100 µM | RPMI-8226 84.1 µM | HOP-92 > 100 µM | SK-MEL-2 21.6 µM | MDA-MB-231 > 100 µM | SW-620 33 µM | ACHN > 100 µM | NCI-H23 > 100 µM | DU-145 > 100 µM | A498 > 100 µM | HCT-116 > 100 µM | KM12 42.3 µM

Cc1cc(S(=O)(=O)Nc2nc(N)nc(N3N=CCC3C)n2)c(SCC(=O)O)cc1Cl (centres undefined)
inactive: UACC-257 > 10 µM | MOLT-4 > 10 µM | SF-539 > 10 µM | OVCAR-5 > 10 µM | HOP-62 > 10 µM | SF-268 > 10 µM | A549 > 10 µM | OVCAR-3 > 10 µM | RPMI-8226 > 10 µM | SK-MEL-2 > 10 µM | MDA-MB-231 > 10 µM | SW-620 > 10 µM | ACHN > 10 µM | NCI-H23 > 10 µM | DU-145 > 10 µM | RXF 393 > 10 µM | A498 > 10 µM | HCT-116 > 10 µM | KM12 > 10 µM

OC1(c2ccccc2)CC2CCC(C1)N2CCCC1(c2ccc(F)cc2)OCCO1 (centres undefined)
inactive: UACC-257 28.1 µM | MOLT-4 47.2 µM | SF-539 > 100 µM | OVCAR-5 79.3 µM | HOP-62 > 100 µM | SF-268 > 100 µM | A549 > 100 µM | OVCAR-3 > 100 µM | RPMI-8226 61.4 µM | SK-MEL-2 > 100 µM | MDA-MB-231 > 100 µM | SW-620 > 100 µM | ACHN > 100 µM | NCI-H23 > 100 µM | DU-145 > 100 µM | RXF 393 59.7 µM | A498 > 100 µM | HCT-116 > 100 µM

COCc1nc2c(OC)c(-c3nc4ccc(N5CCN(C)CC5)nc4[nH]3)cc(OC)c2[nH]1
inactive: UACC-257 24 µM | MOLT-4 37.1 µM | OVCAR-5 40.4 µM | HOP-62 40.1 µM | SF-268 77.4 µM | A549 46 µM | OVCAR-3 15.9 µM | HOP-92 > 100 µM | MDA-MB-231 45.8 µM | SW-620 39.1 µM | ACHN 62.2 µM | NCI-H23 62.5 µM | DU-145 29.2 µM | RXF 393 27.2 µM | A498 > 100 µM | HCT-116 30.1 µM | KM12 27.4 µM

Nc1ncnc2c1cnn2Cc1cn(COCC(O)CO)nn1 (centres undefined)
inactive: UACC-257 > 100 µM | SF-539 > 100 µM | OVCAR-5 > 100 µM | HOP-62 > 100 µM | SF-268 18.1 µM | A549 > 100 µM | OVCAR-3 > 100 µM | HOP-92 > 100 µM | SK-MEL-2 > 100 µM | MDA-MB-231 > 100 µM | SW-620 > 100 µM | ACHN > 100 µM | NCI-H23 > 100 µM | DU-145 > 100 µM | A498 > 100 µM | HCT-116 > 100 µM | KM12 > 100 µM

Cc1nn(C(=O)c2ccc(Cl)cc2)c2c1C(/C=C/c1ccccc1)SC(=N)N2 (centres undefined)
inactive: UACC-257 > 10 µM | MOLT-4 > 10 µM | SF-539 > 10 µM | OVCAR-5 > 10 µM | HOP-62 > 10 µM | SF-268 > 10 µM | A549 > 10 µM | OVCAR-3 > 10 µM | RPMI-8226 > 10 µM | HOP-92 > 10 µM | SK-MEL-2 > 10 µM | MDA-MB-231 > 10 µM | SW-620 > 10 µM | ACHN > 10 µM | NCI-H23 > 10 µM | DU-145 > 10 µM | RXF 393 > 10 µM | HCT-116 > 10 µM | KM12 > 10 µM

COc1ccc2c(c1)OCC1Cc3cc4c(cc3OC21)OCO4 (centres undefined)
inactive: UACC-257 30.2 µM | MOLT-4 36.8 µM | SF-539 39.6 µM | OVCAR-5 60.7 µM | HOP-62 41.2 µM | SF-268 55.7 µM | A549 38.8 µM | OVCAR-3 47.9 µM | RPMI-8226 71.4 µM | HOP-92 > 100 µM | SK-MEL-2 30 µM | MDA-MB-231 > 100 µM | SW-620 35.7 µM | ACHN 97.3 µM | NCI-H23 > 100 µM | DU-145 56.4 µM | A498 > 100 µM | HCT-116 31 µM | KM12 31.8 µM

c1ccc(-n2nc3ccc4nonc4c3n2)cc1
inactive: UACC-257 > 100 µM | MOLT-4 > 100 µM | SF-539 > 100 µM | OVCAR-5 > 100 µM | HOP-62 > 100 µM | SF-268 > 100 µM | A549 > 100 µM | OVCAR-3 > 100 µM | RPMI-8226 > 100 µM | HOP-92 > 100 µM | SK-MEL-2 > 100 µM | MDA-MB-231 > 100 µM | SW-620 > 100 µM | ACHN > 100 µM | NCI-H23 > 100 µM | DU-145 > 100 µM | RXF 393 > 100 µM | HCT-116 > 100 µM | KM12 > 100 µM

Cc1cc(-c2c(Br)cc(C(=O)O)n2C)on1
inactive: UACC-257 > 100 µM | MOLT-4 > 100 µM | SF-539 > 100 µM | OVCAR-5 > 100 µM | HOP-62 > 100 µM | SF-268 > 100 µM | A549 > 100 µM | OVCAR-3 > 100 µM | RPMI-8226 > 100 µM | HOP-92 > 100 µM | SK-MEL-2 > 100 µM | MDA-MB-231 > 100 µM | SW-620 > 100 µM | ACHN > 100 µM | NCI-H23 > 100 µM | DU-145 > 100 µM | A498 > 100 µM | HCT-116 > 100 µM | KM12 > 100 µM

Cc1cc(OCc2nnc3n2N=C(c2cc(F)c(Cl)cc2Cl)/C(=C/c2ccc(-c4ccc(Cl)cc4)o2)S3)ccc1Cl
inactive: UACC-257 > 50 µM | MOLT-4 > 50 µM | OVCAR-5 > 50 µM | HOP-62 > 50 µM | SF-268 > 50 µM | A549 > 50 µM | OVCAR-3 30.5 µM | RPMI-8226 14.1 µM | SK-MEL-2 > 50 µM | MDA-MB-231 12.9 µM | SW-620 32.9 µM | ACHN > 50 µM | NCI-H23 26.7 µM | DU-145 > 50 µM | RXF 393 > 50 µM | A498 24.7 µM | HCT-116 48.2 µM | KM12 41.5 µM

CCCCCCCCCCCCCCCCOc1ccc(/C=C/C2=[N+](CCCl)CCO2)cc1
inactive: UACC-257 > 100 µM | MOLT-4 > 100 µM | SF-539 > 100 µM | OVCAR-5 > 100 µM | HOP-62 87.3 µM | A549 > 100 µM | OVCAR-3 > 100 µM | RPMI-8226 > 100 µM | HOP-92 > 100 µM | SK-MEL-2 > 100 µM | MDA-MB-231 20.1 µM | SW-620 > 100 µM | ACHN > 100 µM | DU-145 > 100 µM | A498 73.1 µM | HCT-116 25.5 µM | KM12 > 100 µM
